Molecules are shown by their SMILES.

The record followed here is US4596811A, “Heterocyclic compounds, a process for their production and medicaments containing these compounds” (Ludwig Heumann & Co., GmbH, priority 1982, dated 1986).

T1 sequence (P47747 whole entry): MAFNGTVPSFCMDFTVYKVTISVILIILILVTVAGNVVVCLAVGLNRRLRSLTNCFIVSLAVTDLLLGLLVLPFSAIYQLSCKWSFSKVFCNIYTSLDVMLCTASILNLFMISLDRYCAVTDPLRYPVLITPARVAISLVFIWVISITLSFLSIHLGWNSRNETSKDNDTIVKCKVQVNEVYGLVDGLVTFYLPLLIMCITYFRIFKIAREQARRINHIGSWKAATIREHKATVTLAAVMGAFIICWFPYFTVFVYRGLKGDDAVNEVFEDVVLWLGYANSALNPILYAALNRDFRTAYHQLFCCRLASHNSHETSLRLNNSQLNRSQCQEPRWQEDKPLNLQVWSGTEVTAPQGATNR

The experiment addresses T1, histamine-H2 receptors (isolated atrium) (Cavia porcellus, UniProt P47747).
T1 construct: in vitro on the isolated atrium of guinea pigs; from tissue; host or cells: isolated guinea pig atrium
Kind of experiment: H2-antagonistic activity, pA2-values in vitro on the isolated atrium of guinea pigs. The class given is cell-based. Particulars: isolated guinea pig atrium, H2 antagonism. An excerpt:
An accepted method for determining H2-antagonistic activity is to determine the pA2-values in vitro on the isolated atrium of guinea pigs (cf. Ariens, Molecular Pharmacology, Vol. 1, Academic Press, New York, 1964).
Usually Kb stands for the equilibrium dissociation constant of an antagonist, usually derived from a functional assay. A low value points to higher antagonist affinity. With `N=C(CCCCOc1cccc(CN2CCCCC2)c1)NS(=O)(=O)c1ccc(N)cc1` [Example 10], the Kb was 0.112 µM.
Next, `N=C(CCSCc1csc(CN2CCCCC2)c1)NS(=O)(=O)c1ccc(N)cc1` [Example 12]: 0.0631 µM; `CN(C)Cc1cc(CSCCC(=N)NS(=O)(=O)c2ccc(N)cc2)cs1` [Example 2, N-(p-aminobenzene-sulfonyl)-3-[(2-N,N-dimethylaminomethylthienyl-4)-methylthio]-propionamidine]: 0.0794 µM.
